Experiments:
[1] = system: intracellular Ca^2+ stores; assay: Ca2+ release from intracellular stores (FURA-2AM loaded cells); format: cell-based; set-up: key to Ca^2+ (Ca^2+ release from intracellular stores): a “+” denotes release; a “+/−” denotes inconclusive
Source text: (§1) As a non-limiting example, compounds 1272 and 1273 (set forth in Table 1) were synthesized starting from 3-bromoaniline, which upon condensation with hydroxylamine and chloral hydrate followed by concentrated sulfuric acid yielded an inseparable regioisomeric mixture of 4- and 6-bromo isatins. The addition of the two phenyl groups to the three position of the oxindole allowed easy chromatographic separation of the 4- and 6-bromo-3,3-diphenyloxindoles 1272 and 1273. Table 1 sets forth biological data for diaryloxindole compounds including, but not limited to 1272 and 1273. For Tables 1-14, Ca^2+ refers to Ca^2+ release from intracellular stores where a “+” denotes release and a “+/−” denotes inconclusive; eIF2α-P refers to phosphorylation of eIF2α measured by Western blot; SRB refers to the inhibitory concentration to reduce cell growth by 50% (IC50) for growth inhibition of A549 lung cancer cells; and n.d. is not determined.
(§2) Without intending to be bound by theory, the mechanism of action of translation initiation inhibitors is set forth in FIG. 1, and includes the depletion (complete or partial depletion) of intracellular calcium (Ca^2+) stores and phosphorylation of eIF2α. Compounds synthesized using the approaches described herein were screened for their ability to partially deplete intracellular Ca^2+ stores using FURA-2AM loaded cells (Benzaquen et al. (1995) Nature Medicine, 1:534, incorporated herein by reference in its entirety for all purposes). A limited subset of compounds were further screened for their ability to deplete endoplasmic reticulum (ER) Ca^2+. The Ca^2+ content of the ER was monitored using ER-targeted, Ca^2+ sensitive, recombinant proteins. These recombinant proteins emitted light by fluorescent resonance energy transfer (FRET) as a function of the Ca^2+ content of the medium. Such assays are previously described (Miyawaki, A.; Mizuno, H.; Llopis, J.; Tsien, R. Y.; Jalink, K. Cameleons as cytosolic and intra-organellar calcium probes, Oxford University Press: Oxford, London, 2001; pp 3-16, incorporated herein by reference in its entirety for all purposes). Compounds that depleted Ca^2+ were further evaluated for their ability to phosphorylate eIF2α. eIF2α phosphorylation was measured by Western blot analysis using the phospho-specific anti-eIF2α antibody, as previously described (Aktas et al. (1998) Proc. Natl. Acad. Sci. USA, 95:8280, incorporated herein by reference in its entirety for all purposes).

eIF2α = eIF2α phosphorylation measured by Western blot; format: cell-based; details: for eIF2α-P (phosphorylation of eIF2α measured by Western blot): unit or reference not given
Source text: as §1, §2

A549 lung cancer cells = assay: SRB growth inhibition of A549 lung cancer cells; format: cell-based, human; details: A549 lung cancer cells; unit inferred; read-out: SRB (IC50 for growth inhibition of A549 lung cancer cells)
Source text: As a non-limiting example, compounds 1272 and 1273 (set forth in Table 1) were synthesized starting from 3-bromoaniline, which upon condensation with hydroxylamine and chloral hydrate followed by concentrated sulfuric acid yielded an inseparable regioisomeric mixture of 4- and 6-bromo isatins. The addition of the two phenyl groups to the three position of the oxindole allowed easy chromatographic separation of the 4- and 6-bromo-3,3-diphenyloxindoles 1272 and 1273. Table 1 sets forth biological data for diaryloxindole compounds including, but not limited to 1272 and 1273. For Tables 1-14, Ca^2+ refers to Ca^2+ release from intracellular stores where a “+” denotes release and a “+/−” denotes inconclusive; eIF2α-P refers to phosphorylation of eIF2α measured by Western blot; SRB refers to the inhibitory concentration to reduce cell growth by 50% (IC50) for growth inhibition of A549 lung cancer cells; and n.d. is not determined. […]

SMILES | IC50 (A549 lung cancer cells) | Ca^2+ (Ca^2+ release from intracellular stores) [1] | eIF2α-P (phosphorylation of eIF2α measured by Western blot) (eIF2α) | eIF2α phosphorylation (in words) (eIF2α)
CC(C)(C)c1ccc(O)c(C2(c3ccccc3)C(=O)Nc3ccc(I)cc32)c1 (centres unmarked) [Compound 1213] | 3 µM | +/− | 2 | –
COc1ccc2c(c1)C(c1ccccc1)(c1cc(C(C)(C)C)ccc1O)C(=O)N2 (centres unmarked) [Compound 1214] | 6 µM | + | 1.62 | –
CC(C)(C)c1ccc(O)c(C2(c3ccccc3)C(=O)Nc3ccc(Cl)cc32)c1 (centres unmarked) [Compound 1215] | 3 µM | +/− | 1.1 | –
CC(C)(C)c1ccc(O)c(C2(c3cccc(Cl)c3)C(=O)Nc3ccccc32)c1 (centres unmarked) [Compound 1221] | 3 µM | + | 3.24 | –
CC(C)(C)c1ccc(O)c(C2(c3cccc(F)c3)C(=O)Nc3ccccc32)c1 (centres unmarked) [Compound 1223] | 7 µM | + | 4.41 | –
Cc1cccc(C2(c3cc(C(C)(C)C)ccc3O)C(=O)Nc3ccccc32)c1 (centres unmarked) [Compound 1224] | 9 µM | + | 1.74 | –
Cc1ccccc1C1(c2cc(C(C)(C)C)ccc2O)C(=O)Nc2ccccc21 (centres unmarked) [Compound 1225] | 4 µM | + | 1.69 | –
COc1ccccc1C1(c2cc(C(C)(C)C)ccc2O)C(=O)Nc2ccccc21 (centres unmarked) [Compound 1226] | 3 µM | + | 2.22 | –
CC(C)(C)c1ccc(O)c(C2(c3ccccc3)C(=O)Nc3c(C(F)(F)F)cccc32)c1 (centres unmarked) [Compound 1230] | 3 µM | +/− | 0.41 | –
C=CCN1C(=O)C(c2ccccc2)(c2cc(C(C)(C)C)ccc2O)c2ccccc21 (centres unmarked) [Compound 1236] | 3 µM | +/− | 2.23 | –
CC(C)(C)c1ccc(O)c(C2(c3ccccc3)C(=O)Nc3c(I)cccc32)c1 (centres unmarked) [Compound 1253] | 6 µM | + | 2.05 | –
CCc1ccc2c(c1)C(c1ccccc1)(c1cc(C(C)(C)C)ccc1O)C(=O)N2 (centres unmarked) [Compound 1254] | 4 µM | + | 2.12 | –
CCc1cccc2c1NC(=O)C2(c1ccccc1)c1cc(C(C)(C)C)ccc1O (centres unmarked) [Compound 1256] | 3 µM | + | 1.3 | –
CC(C)(C)c1ccc(O)c(C2(Cc3ccccc3)C(=O)Nc3ccccc32)c1 (centres unmarked) [Compound 1275] | 13 µM | +/− | 1.01 | –
C#CC1(c2cc(C(C)(C)C)ccc2O)C(=O)Nc2ccccc21 (centres unmarked) [Compound 1276] | 13 µM | + | 0.75 | –

Continued, in another order:

IC50 (A549 lung cancer cells) | SMILES | Ca^2+ (Ca^2+ release from intracellular stores) [1] | eIF2α-P (phosphorylation of eIF2α measured by Western blot) (eIF2α) | eIF2α phosphorylation (in words) (eIF2α)
4 µM | CC(C)(C)c1cccc(C2(c3ccccc3)C(=O)Nc3ccccc32)c1 (centres unmarked) [Compound 1217] | + | 1.5 | –
14 µM | CC(C)(C)c1ccc(O)c(C2(c3ccccc3)C(=O)Nc3ccc(N)cc32)c1 (centres unmarked) [Compound 1231] | + | 1.46 | –
6 µM | CC(C)(C)c1ccc(O)c(C2(c3ccccc3)C(=O)Nc3cccc(Br)c32)c1 (centres unmarked) [Compound 1234] | + | 2.57 | –
4 µM | CC(C)(C)c1ccc(O)c(C2(c3ccccc3)C(=O)Nc3cc(Br)ccc32)c1 (centres unmarked) [Compound 1235] | + | 3.2 | –
17 µM | COc1ccccc1C1(c2ccc(C(C)(C)C)cc2)C(=O)Nc2ccccc21 (centres unmarked) [Compound 1237] | + | 1.3 | –
8 µM | CC(C)(C)c1ccc(C2(c3ccccc3O)C(=O)Nc3ccccc32)cc1 (centres unmarked) [Compound 1239] | + | 1.88 | –
14 µM | O=C1Nc2ccccc2C1(c1ccccc1)c1ccc(O)c(C(F)(F)F)c1 (centres unmarked) [Compound 1242] | + | 2.72 | –
12 µM | O=C1Nc2ccccc2C1(c1ccccc1)c1ccc(O)c(F)c1 (centres unmarked) [Compound 1244] | + | 1.38 | –
10 µM | CCc1cccc2c1C(c1ccccc1)(c1cc(C(C)(C)C)ccc1O)C(=O)N2 (centres unmarked) [Compound 1257] | + | 1.11 | –
4 µM | CCc1ccc2c(c1)NC(=O)C2(c1ccccc1)c1cc(C(C)(C)C)ccc1O (centres unmarked) [Compound 1258] | + | 3.13 | –
9 µM | O=C1Nc2ccc(I)cc2C1(c1ccccc1)c1ccccc1 [Compound 1264] | + | 2.53 | –
14 µM | O=C1Nc2ccc([N+](=O)[O-])cc2C1(c1ccccc1)c1ccccc1 [Compound 1265] | +/− | 2.35 | –
> 20 µM | CCc1ccc2c(c1)C(c1ccccc1)(c1ccccc1)C(=O)N2 [Compound 1269] | + | 1.64 | –
> 20 µM | CCc1cccc2c1C(c1ccccc1)(c1ccccc1)C(=O)N2 [Compound 1270] | + | 1.68 | –
4 µM | CCc1ccc2c(c1)NC(=O)C2(c1ccccc1)c1ccccc1 [Compound 1271] | + | 1.58 | –
8 µM | O=C1Nc2cccc(Br)c2C1(c1ccccc1)c1ccccc1 [Compound 1272] | + | 1.63 | none of the compounds exhibited an increase in eIF2α phosphorylation relative to compound 1392
6 µM | O=C1Nc2cc(Br)ccc2C1(c1ccccc1)c1ccccc1 [Compound 1273] | + | 1.72 | none of the compounds exhibited an increase in eIF2α phosphorylation relative to compound 1392
8 µM | Cc1ccc(O)c(C2(c3ccccc3)C(=O)Nc3ccccc32)c1 (centres unmarked) [Compound 1278] | + | 3.33 | –
3 µM | CCCCCCCc1ccc(O)c(C2(c3ccccc3)C(=O)Nc3ccccc32)c1 (centres unmarked) [Compound 1279] | +/− | 3.49 | –
3 µM | CCCCCCCCCc1ccc(O)c(C2(c3ccccc3)C(=O)Nc3ccccc32)c1 (centres unmarked) [Compound 1280] | +/− | 3.89 | –

— patent publication US8044089B2, “3-3-di-substituted-oxindoles as inhibitors of translation initiation” (President and Fellows of Harvard College, priority 2004, dated 2011)
